{"source": "patent US8137978B2", "about": "“Diagnostic method for biomarkers of adverse coronary events” (Saint Louis University, priority 2009, dated 2012)", "key": {"[1]": {"tested_on": "phagocyte", "test": "2-BrHDA phagocyte chemoattractant activity", "format": "cell-based", "settings": "phagocytes"}, "[2]": {"tested_on": "HepG2 cells", "test": "2-chloropalmitic acid metabolism by HepG2 cells (GC-MS)", "format": "in vitro ADME", "settings": "added to cell culture medium, FIG. 9 Panel A", "text": "Two other chlorinated lipids that have prognostic value are α-chloroadipic acid and α-ClFA that is complexed (stored) in triglyceride pools. α-ClFA is metabolized by either storage in triglyceride pools or is broken down in the liver (FIG. 8). In brief α-ClFA is omega oxidized to produce dicarboxylic acids that are shortened and eventually excreted in the urine. […] Concomitant with the loss of 2-chloropalmitic acid is the accumulation of the omega oxidation product, 2-chlorohexadecanedioc acid (Panel B of FIG. 9). Further metabolism of 2-chlorohexadecanedioc acid leads to 2-chlorotetradecanedioc acid (Panel C of FIG. 9) and eventually 2-chloroadipic acid (Panel D of FIG. 9). These metabolites were quantified using gas chromatography-mass spectrometry techniques employing conversion of the carboxylic acids and dicarboxylic acids to their pentafluorobenzyl ester derivatives and negative ion-chemical ionization mass spectrometry."}, "[3]": {"tested_on": "eosinophil peroxidase in PMA-stimulated eosinophils", "settings": "physiological concentrations of NaCl and NaBr, FIG. 12", "experimental": "Further studies have shown that reactive brominating species (RBS), produced by either MPO- or EPO-released by activated neutrophil or eosinophil, respectively, target plasmalogens. […] Bromide was the preferred substrate for eosinophil peroxidase and chloride was not appreciably used even at a 1000-fold molar excess. […] 2-BrHDA is preferentially produced in PMA-stimulated eosinophils (+PMA) incubated in the presence of physiological concentrations of NaCl and NaBr (FIG. 12). […] These findings may have implications in eosinophilic heart disease as well as pulmonary disease and some cancers, which include eosinophil infiltrations."}}}
{"compound": "CCCCCCCCCCCCCCC(Br)C=O", "note": "(stereo not drawn) [2-BrHDA, 2-bromohexadecanal]", "values": [{"measurement": "chemoattractant activity", "setting": "[1]", "result": "phagocyte chemoattractant"}]}
{"compound": "CCCCCCCCCCCCCCC(Cl)C(=O)O", "note": "(stereo not drawn) [2-chlorohexadecanoic acid]", "values": [{"measurement": "2-chloropalmitic acid remaining in cell culture medium over time", "setting": "[2]", "result": "decreases in a time and concentration dependent manner"}]}
{"compound": "[N-]=[N+]=[N-]", "note": "[azide]", "values": [{"measurement": "2-BrHDA production in the presence of the peroxidase inhibitor", "setting": "[3]", "result": "2-BrHDA was not produced"}]}
